Here are results for nine compounds from patent US5023353A, “Deoxoartemisinin: new compound and composition for the treatment of malaria” (priority 1990, dated 1991).

Values after ≈ are worked out from the molar mass of the structure shown. Like-named read-outs stand apart in the source and are kept apart here.

Data set [1] relates to Plasmodium falciparum W-2. Briefly: In vitro antimalarial activity, semiautomated microdilution (hypoxanthine incorporation), W-2 clone. In kind it is cell-based. As to conditions: for IC50: Plasmodium falciparum, read-out: In Vitro Antimalarial Activity IC50, W-2. The procedure: (§1) The intrinsic antimalarial activities of deoxoartemisinin and various control drugs were quantitatively assessed by using modifications of the semiautomated microdilution method of Desjardins. Deoxoartemisinin was dissolved in DMSO and subsequently diluted in culture medium with 10% plasma. Equimolar starting concentrations were predetermined to generate well-defined concentration curves over a 64-fold range of dilutions. Microtiter plates prepared with serial dilutions of drug and parasite suspensions (at 0.5% parasitemia and 1.5% hematocrit) were incubated at 37° C. in an air-tight plexiglass box, which was flushed with 5% oxygen, 5% carbon dioxide, and 90% nitrogen. After 24 hours of incubation, cultures were labeled with tritiated hypoxanthine and incubated for an additional 18-20 hours prior to harvesting particulate matter on fiber glass strips. Hypoxanthine incorporation in each well was determined by scintillation spectrophotometry and served as an index of specific parasite growth rates. Computer-generated concentration-response curves were analyzed by non-linear regression, and 50% inhibitory concentrations were calculated for each drug. The antimalarial tests were conducted using cultures obtained from the Malaria Laboratory, Division of Experimental Therapeutics, WRAIR/WRAMC, Washington, D.C. The W-2 culture utilized in the testing of Example II was of Indochina origin, chloroquine-resistant and mefloquine-sensitive. The other culture D-6, used in the testing of Example II and reported in Table I, is of Sierra Leone origin, chloroquine-sensitive and mefloquine-resistant.
(§2) Set out in Table I are the comparative results obtained from in vitro testing the activity of the inventive compound, known antimalarial compounds, artemisinin, and another derivative of artemisinin.
For orientation: Dilution methods test growth across graded concentrations, often in twofold steps.

The test system of data set [2] is Plasmodium falciparum D-6. The experiment in a line: In vitro antimalarial activity, semiautomated microdilution (hypoxanthine incorporation), D-6 clone. In kind it is cell-based. Particulars: for IC50: Plasmodium falciparum, read-out: In Vitro Antimalarial Activity IC50, D-6. The procedure:
as §1, §2

The nature of data set [3]: Solubility and lipophilicity.
Data set [4] relates to Plasmodium falciparum. The experiment in a line: Antimalarial screening tests in vitro. In kind it is cell-based. As to conditions: nonperoxy compounds. On the procedure:
as §1, with “The W-2 culture utilized in the testing of Example II was of Indochina origin, chloroquine-resistant and mefloquine-sensitive. The other culture D-6, used in the testing of Example II and reported in Table I, is of Sierra Leone origin, chloroquine-sensitive and mefloquine-resistant.” left out

For data set [5] the following is noted: in vivo; cited from earlier work.
The conditions of data set [6]: background statement; cited from earlier work.
Setting [7] is: W-2 clone, Indochina origin, chloroquine-resistant and mefloquine-sensitive.
The mark [8] stands for this setting: D-6 clone, Sierra Leone origin, chloroquine-sensitive and mefloquine-resistant.

By IC50 is commonly meant the concentration that inhibits the measured activity by half. Take `CCc1nc(N)nc(N)c1-c1ccc(Cl)cc1` [Pyrimethamine]: the figures for the IC50 in data set [1] (setting [7]) and in data set [2] (setting [8]) were 39.3 ng/mL (≈ 0.158 µM) and 0.05 ng/mL (≈ 0.000201 µM), respectively.

For the compound `CC1CCC2C(C)COC3OC4(C)CCC1C32OO4` (centres unmarked) [Deoxoartemisinin, deoxoartemisinin], the results for the IC50 in data set [1] (setting [7]) and in data set [2] (setting [8]) were 0.15 ng/mL (≈ 0.000559 µM) and 0.58 ng/mL (≈ 0.00216 µM), respectively. The “antimalarial activity in vitro as compared to artemisinin, chloroquine-resistant malaria” value in data set [1] (against chloroquine-resistant malaria, relative to artemisinin) is reported as “four”. Besides, in data set [2] (against chloroquine-sensitive malaria, relative to artemisinin), the “antimalarial activity in vitro as compared to artemisinin, chloroquine-sensitive malaria” value is recorded as “approximately eight”. In addition, the “solubility in organic solvents” value in data set [3] is “soluble in chloroform, diethylether, acetonitrile, cyclohexane and hexane”.

Take `C[C@@H]1CC[C@H]2[C@@H](C)C(=O)O[C@@H]3O[C@@]4(C)CC[C@@H]1[C@]32O4` [Deoxyartemisinin, deoxyartemisinin]: the “activity in the antimalarial screening tests” value in data set [4] is “failed to exhibit activity”. Moreover, the half-inhibitory concentration (IC50) in data set [2] (setting [8]) worked out at 762 ng/mL (≈ 2.86 µM).

Regarding `CN(C)[C@@H]1C(=O)C(C(N)=O)=C(O)[C@@]2(O)C(=O)C3=C(O)c4c(O)cccc4[C@@](C)(O)[C@H]3C[C@@H]12` [Tetracycline], the IC50 in data set [1] was determined as 10200 ng/mL (≈ 23 µM); in data set [2] it was 7230 ng/mL (≈ 16.3 µM).

Take `OC(c1cc(C(F)(F)F)nc2c(C(F)(F)F)cccc12)C1CCCCN1` (centres unmarked) [Mefloquine]: the IC50 in data set [1] (setting [7]) came to 0.74 ng/mL (≈ 0.00196 µM); in data set [2] (setting [8]), 7.3 ng/mL (≈ 0.0193 µM).

As for `COc1ncnc(NS(=O)(=O)c2ccc(N)cc2)c1OC` [Sulfadoxine], the IC50 in data set [1] (setting [7]) was 14300 ng/mL (≈ 46.2 µM); in data set [2] (setting [8]), 16.4 ng/mL (≈ 0.0527 µM).

As for `C=C[C@H]1C[N@@]2CC[C@H]1C[C@H]2[C@H](O)c1ccnc2ccc(OC)cc12` [Quinine], the IC50 came to 59.7 ng/mL (≈ 0.184 µM) in data set [1] and 10.8 ng/mL (≈ 0.0333 µM) in data set [2].

As to `CCN(CC)CCCC(C)Nc1ccnc2cc(Cl)ccc12` (centres unmarked) [Chloroquine], the figures for the 50% inhibitory concentration (IC50) in data set [1] and in data set [2] were 55.7 ng/mL (≈ 0.174 µM) and 2.69 ng/mL (≈ 0.00841 µM), respectively.

In the case of `C[C@@H]1CC[C@H]2[C@@H](C)C(=O)O[C@@H]3O[C@@]4(C)CC[C@@H]1[C@]32OO4` [Artemisinin, artemisinin], the IC50 in data set [1] (setting [7]) amounted to 1.21 ng/mL (≈ 0.00429 µM); in data set [2] (setting [8]), 2.33 ng/mL (≈ 0.00825 µM). Besides, the side effects entry in data set [5] was “No side effects”. For the same compound, the “solubility in water or oils” value in data set [6] is “only sparingly soluble in either water or oils”.
